Values of other authors, collected in US4285947A, “Aldehyde adducts of triamterene” (INTERx Research Corporation, priority 1980, dated 1981).
In brackets after ≈: the same amount, converted by molar mass.

Legend:
[1] = not given; remark: listed apart in the source
[2] = following the recommended clinical dose

Nc1nc(N)c2nc(-c3ccccc3)c(N)nc2n1 [triamterene, 2,4,7-triamino-6-phenylpteridine]
solubility in lipid-like solvents: limited solubility | aqueous solubility [1]: 45 µg/mL (≈ 178 µM) | plasma and urine concentration [2]: extremely low
